PubChem BioAssay (NCI)
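Protocol summary: plate cells (96-well), add compound at 5 concentrations, incubate 48 h, interpolate endpoints linearly. GI50: concentration for 50% inhibition of growth. The concentration for full growth arrest is given as TGI.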

Experiments:
Assay in all cases: inhibition of tumour cell growth, NCI panel, 48 h
DU-145 prostate = test system: DU-145 prostate
HT29 colon = test system: HT29 colon
MALME-3M melanoma = test system: MALME-3M melanoma
NCI-H23 lung = test system: NCI-H23 lung
NCI/ADR-RES ovarian = test system: NCI/ADR-RES ovarian
SN12C renal = test system: SN12C renal
SW-620 colon = test system: SW-620 colon
T-47D breast = test system: T-47D breast
UO-31 renal = test system: UO-31 renal
OVCAR-4 ovarian = test system: OVCAR-4 ovarian
SK-MEL-2 melanoma = test system: SK-MEL-2 melanoma

Structure (SMILES)	TGI (DU-145 prostate)	TGI (HT29 colon)	TGI (MALME-3M melanoma)	TGI (NCI-H23 lung)	TGI (NCI/ADR-RES ovarian)	TGI (SN12C renal)	TGI (SW-620 colon)	TGI (T-47D breast)	TGI (UO-31 renal)	GI50 (DU-145 prostate)	GI50 (MALME-3M melanoma)	GI50 (NCI/ADR-RES ovarian)	GI50 (OVCAR-4 ovarian)	TGI (OVCAR-4 ovarian)	GI50 (SK-MEL-2 melanoma)	TGI (SK-MEL-2 melanoma)	GI50 (SN12C renal)	GI50 (SW-620 colon)	GI50 (T-47D breast)	GI50 (UO-31 renal)
Cc1cccc(C(O)c2cccnc2)c1O (configuration not stated)	> 100 µM	> 100 µM	> 100 µM	> 100 µM	> 100 µM	> 100 µM	> 100 µM	> 100 µM	> 100 µM											
c1cc2ccc1CNCCN1CCNCc3ccc(cc3)Oc3ccc(cc3)CNCCN(CCNCc3ccc(cc3)O2)CCNCc2ccc(cc2)Oc2ccc(cc2)CNCC1	2.83 µM		3.13 µM		63.5 µM	1.57 µM	2.63 µM	3.61 µM	26.4 µM	1460 nM	1660 nM	16.7 µM	1790 nM	3.34 µM	1600 nM	3.14 µM	446 nM	1110 nM	1630 nM	11.3 µM
COC(=O)[C@@H]1O[C@]12[C@@H](CO[Si](C)(C)C(C)(C)C)O[C@@H](n1cc(C)c(=O)[nH]c1=O)[C@@H]2O[Si](C)(C)C(C)(C)C	39 µM	18.1 µM	43.4 µM	40.5 µM	33.8 µM	27.9 µM	27.9 µM	27.3 µM						> 100 µM		30.1 µM				
